{
  "source": "patent US20220105051A1",
  "about": "“COMPOUNDS FOR INCREASING MHC-I EXPRESSION AND MODULATING HISTONE DEACETYLASE ACTIVITY” (Cava Healthcare Inc., priority 2019, published 2022)",
  "molecules": {"B1": {"name": "IFN-γ: known inducer of TAP-1 expression, positive control (protein, UniProt P01579 24-161, looked up)", "Interferon gamma": "QDPYVKEAENLKKYFNAGHSDVADNGTLFLGILKNWKEESDRKIMQSQIVSFYFKLFKNFKDDQSIQKSVETIKEDMNVKFFNSNKKKRDDFEKLTNYSVTDLNVQRKAIHELIQVMAELSPAAKTGKRKRSQMLFRG"}},
  "key": {"Water solubility": {"assay": "Water solubility", "type": "physicochemical"}, "MHC-I [1]": {"test_system": "MHC-I", "assay": "MHC-I surface expression by flow cytometry", "type": "cell-based, murine", "conditions": "A9 cells, 48 hours after treatment, flow cytometry", "method": "A9 and TC-1 cell lines were trypsinized (0.05%, Gibco), washed twice with PBS (Gibco), and stained with allophycocyanin (APC) conjugated anti-mouse H-2K^b antibody (1:200, Biolegend) suspended in 150 μL of FACS buffer (PBS+2% FBS) for 20 minutes at 4° C. Cells were washed twice with PBS and re-suspended in 200 μL FACs buffer containing 1 μL of 7-aminoactinomycin (7AAD) viability stain (Biolegend). Flow cytometry was performed on the LSRII (BDBiosciences) and analysis was done using FlowJo (Flow cytometry Analysis Software).\nThe marine extract library was provided by Dr. Raymond J. Andersen (UBC). The marine invertebrate specimens were collected by SCUBA diving at a 40 metre depth from regions of high marine biodiversity in Papua New Guinea, Indonesia, Thailand, Sri Lanka, Dominica, Brazil, British Columbia, South Africa, and Norway 35. Previously curcuphenol was identified as the active component in one of the marine extracts showing induction of the APM, and since then two new generations of curcuphenol analogues were synthesized in the lab of Dr. Raymond Anderson. To evaluate the ability of these compounds to induce MHC-I surface expression, A9 cells were plated in 6 well plates at 10^5 cells/well and incubated for 24 hours at 37° C. in a 5% CO2 humidified atmosphere. After 24 hours the medium was removed and replaced with medium containing varying concentration of synthesized compounds (6.7 μg/mL, 20 μg/mL, 60 μg/mL). […] Following treatment, cells were incubated for 48 hours at 37° C. with 5% CO2 and humidified atmosphere. After incubation cells were subjected to flow cytometry.\nEvaluation of MHC-I surface expression by flow cytometry. LMD:TAP-1 cells or A9 cells were plated in 6 well plates at a concentration of 10,000 cells per well in a 2 mL volume. The next day, cells were treated with the indicated concentrations of the compounds and incubated for 48 hours at 37° C. After incubation, the cells were trypsinized, washed and stained with APC-conjugated anti-mouse MHC-I (specifically anti-H-2K^b) antibody (Biolegend) and assessed by flow cytometry analysis."}, "[2]": {"conditions": "literature; cited from earlier work"}, "CD4+ and CD8+ T cells": {"test_system": "CD4+ and CD8+ T cells", "assay": "Analysis of tumour-infiltrating lymphocytes", "type": "in vivo, C57BL/6 mice", "conditions": "after 12 days of treatment, flow cytometry", "method": "(§1) The metastatic cell line, A9, was grown in the DMEM, as previously described without, the addition of antibiotics (penicillin and streptomycin, P/S). Once cells reached 75-80% confluence, they were trypsinized (0.05%, Gibco) and washed with HBSS (Hanks balanced salt solution). The cells were counted using the Bio-RAD TC20 automated cell counter and suspended to a concentration of […] in HBSS. Thirty-two synergistic female C57BL/6 mice, between the ages 6-8 weeks, were subcutaneously injected in the right flank with 50 μL containing 5×10^4 A9 metastatic tumour cells. Seven days following tumour inoculation i.p. treatment began daily for 12 days. Four treatment groups were studied, with eight animals per group. […] Body weights were measured three times a week and once tumours developed they were measured with calipers and tumour volume was calculated. Twelve days after starting treatment, mice were euthanized and tumours were collected and weighed. The tumours were then processed for flow cytometry analysis. Tumours were cut into small pieces and incubated RPMI (Gibco; with P/S 0.5%, Sodium pyruvate 1%, and L-glutamine 1%) and 3 mg/mL collagenase A (Roche) for one hour at 37° C. with shaking. Dissociated tumour cells were passed through a 100 μm filter and spun down at 15,000×RCF for 3 minutes. The pellet was washed once in FACs buffer (2% FBS in PBS) and spun down. The pellet was next suspended in red blood cell (RBC) lysis buffer and kept at room temperature for 5 minutes before being neutralized by the addition of 5 ml of PBS and spun down. If pellets were still found to contain RBCs this step was repeated. Once all RBCs were removed cells were suspended in FACs buffer to a concentration of 10^7 cells/mL. A total volume of 200 ul of cells from each tumour were added to a 96 well plate (Falcon) and incubated with Fc Blocker (Biolegend, 1:400) for twenty minutes at 4° C. The 96 well plate was spun down at 1,200 rmp for three minutes and supernatant was removed. The cells were then suspended in 150 ul of FACs buffer containing anti-CD8a (PE-Cy7, 1:200, eBioscience) and CD4 (APC, 1:200, Biolegend) antibodies and incubated at 4° Celsius for 20 minutes. The cells were washed twice and spun down using FACs buffer before being to flow cytometry tubes in a final volume of 200 ul of FACs buffer containing 7AAD (Biolegend 1:200). Flow cytometry was performed on LSRII (BDBiosciences) and analysis was done using FlowJo (Flow cytometry Analysis Software).\nAnalysis of tumour-infiltrating lymphocytes (TILs). Tumour-infiltrating T lymphocyte (either CD4^+ or CD8^+ T cells) infiltration was evaluated in tumours of mice following 2-week treatment with either compounds or controls. Tumours at the site of initial injection were removed from tumour-bearing mice. Following tumour dissociation in the presence of collagenase A (Roche) and erythrocyte lysis, the tumour cells were then washed and prepared as single-cell suspensions to detect TILs. Before staining with antibodies, the cells were incubated with Fc Blocker (Ebiosciences) for 20 minutes at 4° C. The tumour cells were then washed and stained with anti-CD4-APC (Biolegend), anti-CD8-PECy7 (eBiosciences) and 7-AAD (Biolegend) viability stain. Using flow cytometry, 7-AAD positive dead cells were gated out and the remaining population was assessed for CD4^+ and CD8^+ expression. Data were acquired using a BD™ LSR II flow cytometer (BD Biosciences) with FACSDiva™ software and analyzed with FlowJo software (Treestar)."}, "MHC-I [3]": {"test_system": "MHC-I", "conditions": "earlier work of the lab; cited from earlier work"}, "[4]": {"test_system": "A9 metastatic tumour cells", "assay": "In vivo tumour trial", "parameters": "species or system C57BL/6 mice", "conditions": "daily i.p. for 12 days, P02-113 and P03-97-1 5.2 mg/kg, TSA 0.5 mg/kg", "method": "as §1\nTreatment of tumour-bearing mice with identified compounds. 5×10^4 A9 cells suspended in HBSS were subcutaneously (s.c.) transplanted into the right flank of 32 eight-week-old female C57BI/6 mice, as previously described 75. […] Body weight and tumours (once established) were measured every 2-4 days (more often as tumour size increased). Tumours were measured using calipers and volume was calculated as following: tumour volume=length×width^2. The tumour growth rate was assessed using methods previously described^28."}, "TAP-1": {"test_system": "TAP-1", "assay": "High-throughput cell-based screen for TAP-1 induction (EGFP under the TAP-1 promoter)", "parameters": "species or system murine", "conditions": "LMD:TAP-1 cells, 10 ng/mL", "description": "Identification of marine natural product extracts with the ability to promote up-regulation of TAP-1 and […] expression in cancer cells: A high-throughput cell-based screen was used for identification of candidate compounds that increase the expression of TAP-1 in the LMD murine metastatic prostate cell line. To assess the induction of TAP-1 expression we used the LMD:TAP-1 cell line, which was transfected with a vector containing EGFP under the TAP-1 promoter^44. The Cellomics™ Arrayscan VTI automated fluorescence imager was used to determine the cell numbers based on DNA staining and the average GFP fluorescence intensity which correlates to the levels of TAP-1 induction (FIG. 24A). […]\nCell-based screening assay. […] Image acquisition, segmentation and analysis of micro plates were carried out using the Cellomics™ Arrayscan V^TI automated fluorescence imager (Thermo Fisher Scientific). […] The target activation algorithm was used to identify the nuclei based on Hoechst fluorescence intensity, apply a cytoplasmic mask and quantitate GFP fluorescence intensity within the cytoplasmic mask area. Average GFP fluorescence intensity (intensity per cell per pixel) and total number of cells per well were determined. […]"}},
  "note": "“Also recorded” adds a separate entry of the source.",
  "data": [
    {"molecule": "Cc1ccc(CCCC(O)C(C)(C)O)c(O)c1", "note": "(stereo not shown) [P04-149]", "values": [
      {"measurement": "water solubility", "setting": "Water solubility", "value": "water soluble"},
      {"measurement": "induction of MHC-I expression at the cell surface", "setting": "MHC-I [1]", "value": "increases MHC-I expression"}
    ]},
    {"molecule": "CC(/C=C/C(=O)NO)=C\\[C@@H](C)C(=O)c1ccc(N(C)C)cc1", "note": "[TSA, Trichostatin A, reference compound]", "values": [
      {"measurement": "detection after 24 hours", "setting": "[2]", "value": "no detection"},
      {"measurement": "half-life", "setting": "[2]", "value": "under ten"},
      {"measurement": "CD4+ T cell infiltration of tumours", "setting": "CD4+ and CD8+ T cells", "value": "no significant infiltration or difference; also recorded: did not appear to increase"},
      {"measurement": "CD8+ T cell (CTL) infiltration of tumours", "setting": "CD4+ and CD8+ T cells", "value": "greatest CD8+ infiltration; also recorded: increase in the CTL infiltration"},
      {"measurement": "restoring the MHC-I on A9 cells", "setting": "MHC-I [3]", "value": "effective in restoring the MHC-I"},
      {"measurement": "tumour volume / tumour growth compared to vehicle control", "setting": "[4]; A9 tumours", "value": "reduced"},
      {"measurement": "body weight", "setting": "[4]", "value": "remained stable; also recorded: no significant changes"}
    ]},
    {"molecule": "B1", "values": [
      {"measurement": "TAP promoter-induced GFP expression", "setting": "TAP-1", "value": "high level of GFP expression"}
    ]}
  ]
}
